Assays:
[1] = system: cell lines resistant to abemaciclib and tamoxifen; assay: Cell proliferation and viability assays (Geminin/Ki67, annexin V, colony formation), sequential treatment; format: cell-based; details: sequential treatment in combination with ET
Method: (§1) Resistant breast cancer cells are prepared by treating breast cancer cell lines with amounts of a CDK4 and 6 inhibitor (either abemaciclib or palbociclib) in combination with 4-OH-tamoxifen (tamoxifen) for 120-144 h. The cells are sorted and screened for resistant cells, defined as geminin positive (GEM+), a marker of S/G2/M cell cycle accumulation. To confirm the resistant phenotype, cell lines are treated with tamoxifen plus the CDK4 and 6 inhibitor used to drive resistance (either abemaciclib or palbociclib). Resistant cancer cells generated by the above method are treated with abemaciclib in combination with an endocrine therapy (ET) comprising either fulvestrant or tamoxifen; or with palbociclib in combination with either fulvestrant or tamoxifen. Cell proliferation and viability are evaluated by Geminin/Ki67, annexin V, and colony formation assays. Mechanisms of resistance and the effects of sequential treatment of the CDK4 and 6 inhibitor in combination with either fulvestrant or tamoxifen are characterized by western blot and RNAseq analysis.

[2] = system: abemaciclib-resistant cells; assay: Characterization of effects of sequential treatment (proliferation, pRb signaling, androgen response); format: cell-based; details: in combination with ET
Method: as §1

[3] = system: abemaciclib-resistant cells; assay: Western blot analysis after sequential treatment; format: cell-based; details: in combination with ET
Method: as §1

[4] = system: Cancer cell lines that are resistant to palbociclib and tamoxifen; assay: Geminin/Ki67 cell proliferation assay, sequential CDK4 and 6 inhibitor treatment; format: cell-based; details: sequential treatment in combination with ET (fulvestrant or tamoxifen)
Method: as §1

[5] = system: Cancer cell lines that are resistant to palbociclib and tamoxifen; assay: Annexin V assay, sequential CDK4 and 6 inhibitor treatment; format: cell-based; details: sequential treatment in combination with ET (fulvestrant or tamoxifen)
Method: as §1

[6] = system: Cancer cell lines that are resistant to palbociclib and tamoxifen; assay: Colony formation assay, sequential CDK4 and 6 inhibitor treatment; format: cell-based; details: sequential treatment in combination with ET (fulvestrant or tamoxifen)
Method: as §1

[7] = system: Cancer cell lines that are resistant to palbociclib and tamoxifen; assay: Characterization of effects of sequential treatment (proliferation, pRb signaling, androgen response); format: cell-based; details: sequential treatment in combination with ET
Method: as §1

[8] = system: HR+, HER2− advanced or metastatic breast cancer; details: abemaciclib 150 mg BID in combination with fulvestrant; patients; cited from earlier work
[9] = system: palbociclib-resistant cells; assay: Western blot analysis after sequential treatment; format: cell-based; details: in combination with ET
Method: as §1

[10] = system: early breast cancer at high risk of recurrence; details: adjuvant setting; patients with early breast cancer at high risk of recurrence; cited from earlier work
[11] = system: HR+, HER2− advanced or metastatic breast cancer; format: in vivo, human; details: investigation arm: abemaciclib 150 mg PO BID and fulvestrant 500 mg IM; expected
Method: As detailed below, a clinical trial is conducted as a Phase 3, global, multicenter, randomized, double-blind, placebo-controlled study in participants with HR+, HER2− advanced or metastatic breast cancer. The study will enroll adults who experienced disease progression on a CDK4 and 6 inhibitor and an aromatase inhibitor (AI) therapy in the first-line setting (initial therapy for advanced or metastatic breast cancer), or recurrence on or after a CDK4 and 6 inhibitor with endocrine therapy (ET) in the adjuvant setting.
The trial will include approximately 350 participants that will be randomly assigned to one of two intervention arms that include an investigational arm A: abemaciclib and fulvestrant and a control arm B: placebo and fulvestrant. […]
The primary endpoint, PFS by investigator assessment, is defined as the time from randomization until the first occurrence of documented disease progression as determined by investigator assessment per RECIST 1.1, or death from any cause in the absence of documented progressive disease. […]

Row | SMILES | inhibition effects (% GEM+, colony formation ability, Ki67 levels, apoptosis) [1] | effects on proliferation, pRb signaling, or androgen response [2] | effects on FOXMI and cyclin A [3] | % GEM+ [4] | Ki67 levels [4] | apoptosis [5] | colony formation ability [6] | androgen response [7] | pRb signaling [7] | proliferation [7] | OS benefit compared to fulvestrant/placebo [8] | PFS benefit compared to fulvestrant/placebo [8] | safety profile [8] | FOXMI, a regulator of senescence and apoptosis [9] | cyclin A, a marker of mitosis [9] | distant relapse-free survival (DRFS) [10] | invasive disease-free survival (IDFS) [10] | disease progression [11]
1 | CC(=O)c1c(C)c2cnc(Nc3ccc(N4CCNCC4)cn3)nc2n(C2CCCC2)c1=O [palbociclib, 6-acetyl-8-cyclopentyl-5-methyl-2-{[5-(piperazin-1-yl)pyridine-2-yl]amino}pyrido[2,3,-d]pyrimidin-7 (8H)-one] | do not show similar inhibition effects | do not exhibit similar effects | do not exhibit similar effects | – | – | – | – | – | – | – | – | – | – | – | – | – | – | –
2 | CCN1CCN(Cc2ccc(Nc3ncc(F)c(-c4cc(F)c5nc(C)n(C(C)C)c5c4)n3)nc2)CC1 [abemaciclib, [5-(4-ethyl-piperazin-1-ylmethyl)-pyridin-2-yl]-[5-fluoro-4-(7-fluoro-3-isopropyl-2-methyl-3H-benzoimidazol-5-yl)-pyrimidin-2-yl]-amine] | – | – | – | decreased | decreased | increased | decreased | induction | decreased | decrease | clinically meaningful | clinically meaningful | manageable safety profile | decrease | decrease | significant improvement | significant improvement | delay disease progression

From patent US20240398832A1, “CDK4 AND 6 INHIBITOR IN COMBINATION WITH FULVESTRANT FOR THE TREATMENT OF HORMONE RECEPTOR-POSITIVE, HUMAN EPIDERMAL GROWTH FACTOR RECEPTOR 2-NEGATIVE ADVANCED OR METASTATIC BREAST CANCER IN PATIENTS PREVIOUSLY TREATED WITH A CDK4 AND 6 INHIBITOR” (Eli Lilly and Company, priority 2021, published 2024)
